The source of these data is patent US20010036955A1, “Method of inhibiting angiogenesis” (Genentech, Inc., priority 1998, published 2001).

In experiment [1] the test system is VEGF-stimulated angiogenesis in rat cornea. Briefly: Corneal angiogenesis assay (Hydron pellet with VEGF). The experiment is classed as in vivo, Sprague-Dawley rats. The method, then:
A 1.5 mm incision was made approximately 1 mm from the center of the cornea of isoflurane-ketamine (60-80 mg/kg) xylazine (10-15 mg/kg) anesthetized Sprague-Dawley rats. Using a curved spatula, the incision was bluntly dissected through the stroma towards the outer canthus of the eye. A Hydron pellet […] containing VEGF (200 ng), sucralfate (100 μg) with or without (control) 15d-PGJ2 (10 μg/pellet) was inserted into the base of the pocket. After surgery, the eyes were coated with gentamicin ointment. Animals are observed at 24-48 hr for the occurrence of nonspecific inflammation and then daily thereafter. At day 6, the animals were euthanized and injected with FITC-dextran to allow for visualization of the vasculature. Corneal whole mounts were made of the enucleated eyes and analyzed for neovascular area using the computer assisted image analysis.

The test system of experiment [2] is Flt-1 mRNA. Briefly: Real time RT-PCR (Taqman) assay in HUVEC. The class given is cell-based, human. The settings on record: HUVEC in three dimensional collagen gels; VEGF, bFGF, PMA; 10:M 15d-PGJ2. Here is the method: (§1) This technique has been used to quantitatively monitor mRNA expression and has been described in detail previously (Heid, C. A. et al., (1996) Genome Methods 6:986-994; Gerber, H. et al., (1997) J. Biol. Chem. 272:23659-23667). Total RNA was extracted from HUVEC cultured in three dimensional collagen gels or on collagen-coated flasks for various times in 1× basal medium consisting of M199 supplemented with 1%FBS, 1× ITS, 2 mM L-glutamine, 50 μg/ml ascorbic acid, 26.5 mM NaHCO3, 100 U/ml penicillin and 100 U/ml streptomycin supplemented with 40 ng/ml bFGF (basic fibroblast growth factor), 40 ng/ml VEGF and 80 nM PMA […]. […] The primers and probes used were as follows: […] forward primer 5′-[…]-3′ (SEQ ID NO: 7), reverse primer 5′-CACCATCGCGACCAGATG-3′ (SEQ ID NO: 8), and probe 5′-[…]-3′ (SEQ ID NO: 9); […] forward primer 5′-TGACCTGCGGCAACTGG-3′ (SEQ ID NO: 10), reverse primer 5′-[…]-3′ (SEQ ID NO: 11), and probe 5′-[…]-3′ (SEQ ID NO: 12); human PPARβ gene forward primer 5′-[…]-3′ (SEQ ID NO: 13), reverse primer 5′-[…]-3′ (SEQ ID NO: 14), and probe 5′-[…]-3′ (SEQ ID NO: 15); human Flk/KDR gene forward primer 5′-[…]-3′ (SEQ ID NO: 16), reverse primer 5′-[…]-3′ (SEQ ID NO: 17), and probe 5′-[…]-3′ (SEQ ID NO: 18); human Flt-1 gene forward primer 5′-[…]-3′ (SEQ ID NO: 19), reverse primer 5′-[…]-3′ (SEQ ID NO: 20), and probe 5′-[…]-3′ (SEQ ID NO: 21); human uPA gene forward primer 5′-[…]-3′ (SEQ ID NO: 22), reverse primer 5′-GCGCACACCTGCCCTC-3′ (SEQ ID NO: 23), and probe 5′-[…]-3′ (SEQ ID NO: 24); human PAI-1 gene forward primer 5′-TCGTCCAGCGGGATCTGA-3′ (SEQ ID NO: 25), reverse primer 5′-GTGCTCCGGAACAGCCTG-3′ (SEQ ID NO: 26), and probe 5′-[…]-3′ (SEQ ID NO: 27); human glyceraldehyde-3-phosphate dehydrogenase (GAPDH) gene forward 5′-GAAGGTGAAGGTCGGAGTC-3′ (SEQ ID NO: 28), reverse 5′-[…]-3′ (SEQ ID NO: 29), and probe 5′-[…]-3′ (SEQ ID NO: 30). Total RNA (100 ng) was added to a 50 μl RT-PCR reaction mixture according to the manufacturer's protocol (Roche Molecular Systems, Inc., Branchburg, N.J.). The thermal cycling conditions included 1 cycle at 48° C. for 30 min, 1 cycle at 95° C. for 10 min, 40 cycles at 95° C. for 15 s, at 60° C. for 1 min and finally hold at 25° C. for 2 min. Standard curves for expression of each gene were generated by serial dilution of the total RNA isolated from HUVEC. […] Therefore, the relative mRNA expression of each gene was normalized to the level of GAPDH in the same RNA preparation.

The subject of experiment [3] is PAI-1 mRNA. Briefly: Real time RT-PCR (Taqman) assay in HUVEC. The class given is cell-based, human. The settings on record: at 24 hr; HUVEC in three dimensional collagen gels; 10:M 15d-PGJ2. Here is the method: as §1
Background: Real-time PCR tracks product formation cycle by cycle.

Experiment [4] concerns uPA mRNA. Briefly: Real time RT-PCR (Taqman) assay in HUVEC. The experiment is classed as cell-based, human. The settings on record: at 4 hr; HUVEC in three dimensional collagen gels; 10:M 15d-PGJ2. Here is the method:
as §1

Experiment [5] deals with MMP-2 mRNA. Briefly: Real time RT-PCR (Taqman) assay in HUVEC, Example 7. The conditions noted are these: 10 μM; 24 h; PMA or PMA with bFGF and VEGF. The class given is cell-based, human. The method, then:
(§2) Total RNA was extracted from HUVEC cultured in 3-D type I collagen gels for various times in 1× basal medium supplemented with 40 ng/ml bFGF, 40 ng/ml VEGF, […] PMA or the combination of PMA (80 nM), bFGF and VEGF (40 ng/mil each). […] For all mRNAs evaluated a sample of total RNA (100 ng) was added to a 50 μl RT-PCR reaction mixture according to the manufacturer's protocol (Roche Molecular Systems, Inc., Branchburg, N.J.). The thermal cycling conditions included 1 cycle at 48° C. for 30 min, 1 cycle at 95° C. for 10 min, 40 cycles at 95° C. for 15 s, at 60° C. for 1 min, and finally hold at 25° C. for 2 min. Standard curves for expression of each gene were generated by serial dilution of the total RNA isolated from U937 cells. […] Therefore, the relative mRNA expression of each gene was normalized to the level of GAPDH in the same RNA preparation.

For experiment [6], the system named is MMP-3 mRNA. Described as above. The experiment is classed as cell-based, human. The method, then:
as §2

The test system of experiment [7] is MMP-9 mRNA. The description is as above. The experiment is classed as cell-based, human. The conditions noted are these: 10 μM; 24 h; PMA or PMA with bFGF and VEGF. Here is the method:
as §2

Experiment [8] relates to TIMP-1 mRNA. The description is as above. The experiment is classed as cell-based, human. The conditions noted are these: 10 μM; bFGF, VEGF and PMA; at 4 h or 24 h. Here is the method:
as §2

Experiment [9] relates to TIMP-2 mRNA. Described as above. The experiment is classed as cell-based, human. The conditions noted are these: 10 μM; bFGF, VEGF and PMA; at 4 h. Here is the method:
as §2

Turning to `CCCCC/C=C/C=C1/C(=O)C=CC1C/C=C\CCCC(=O)O` (centres unmarked) [15d-PGJ2, 15-deoxy-delta^12,14-PGJ2], in experiment [1] (200 ng/pellet VEGF and 10 μg/ml 15d-PGJ2, day 6 postimplantation, p<0.05, Mann-Whitney), the “area of new vessels (FIG. 4C)” value was “significantly different from VEGF alone group”. Also, the “vessel length compared to VEGF only (positive) controls” value in [1] (Hydron pellet, 200 ng VEGF with 10 μg 15d-PGJ2, rat cornea) is given as “significant reduction”. The “Flt-1 mRNA induction by growth factors” value in experiment [2] is “inhibited the induction”. For the same molecule, the PAI-1 gene expression result in [3] was “increased”. Also, the “uPA mRNA” value in experiment [4] is reported as “reduced”. Also, in [5], the “MMP-2 mRNA levels” value is “significant suppression”. Moreover, the “MMP-3 mRNA levels” value in [6] (HUVEC cultured with combination of bFGF, VEGF and PMA at 24 h) is given as “increased”. Moreover, in experiment [6] (PMA-treated group), the “MMP-3 mRNA expression” value was “no effect”. In addition, the “MMP-9 mRNA levels” value in experiment [7] was “significant suppression”. The “expression of TIMP-1” value in experiment [8] was “did not increase”. Further, the “TIMP-2 mRNA levels compared to the vehicle treated group” value in [9] is given as “reduced”.
